Results as given in patent publication US11773078B2, “Furin inhibitors” (Glaxosmithkline Intellectual Property Development Limited, priority 2018, dated 2023).
Structures can show the parent of a compound that is named as a salt.

Key:
[1] = molecular target: T1, furin (endogenous protease) in U20S cells (Homo sapiens, UniProt P09958); experiment: Furin cell-based assay (image-based, Golgi-targeted GFP with BMP10 furin/PCSK cleavage site); settings: 24-hour incubation, read-out: furin golgi cell pXC50 (converted);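 note: Read-out is mean GFP fluorescence of Golgi puncta per cell by high-content imaging, retained when furin inhibited, over an eleven-point 0.00017–10 µM series, four-parameter fit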
T1 construct: the endogenous protease cleaves GFP; endogenous in cells; host or cells: U2OS cells transduced with a BacMam reporter
T1 sequence (P09958 108-794): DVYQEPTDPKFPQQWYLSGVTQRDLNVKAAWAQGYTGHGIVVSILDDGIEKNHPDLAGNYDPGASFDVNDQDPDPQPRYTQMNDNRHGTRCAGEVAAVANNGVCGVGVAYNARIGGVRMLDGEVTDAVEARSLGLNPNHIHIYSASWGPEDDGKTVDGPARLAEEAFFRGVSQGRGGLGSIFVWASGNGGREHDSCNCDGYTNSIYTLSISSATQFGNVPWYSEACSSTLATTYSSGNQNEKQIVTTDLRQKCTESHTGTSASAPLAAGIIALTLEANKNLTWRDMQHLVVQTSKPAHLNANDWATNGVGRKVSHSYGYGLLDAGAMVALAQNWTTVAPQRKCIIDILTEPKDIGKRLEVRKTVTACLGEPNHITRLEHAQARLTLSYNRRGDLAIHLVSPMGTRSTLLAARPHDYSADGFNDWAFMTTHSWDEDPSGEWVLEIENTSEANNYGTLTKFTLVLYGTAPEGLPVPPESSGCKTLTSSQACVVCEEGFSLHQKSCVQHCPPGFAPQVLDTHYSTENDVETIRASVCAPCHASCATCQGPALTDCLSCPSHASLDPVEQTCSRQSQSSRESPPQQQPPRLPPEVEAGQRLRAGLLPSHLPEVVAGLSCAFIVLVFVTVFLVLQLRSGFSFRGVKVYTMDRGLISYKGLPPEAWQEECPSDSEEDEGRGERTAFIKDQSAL

[2] = molecular target: T2, Furin (108-574-Tev-Flag-His) enzyme (Homo sapiens, UniProt P09958); experiment: Furin enzyme assay; format: biochemical
T2 construct: Furin (108-574-Tev-Flag-His) enzyme was expressed and purified from CHO cells; TEV cleavage site (C); FLAG (C); His (C); made in house; host or cells: CHO cells
T2 sequence (P09958 108-574): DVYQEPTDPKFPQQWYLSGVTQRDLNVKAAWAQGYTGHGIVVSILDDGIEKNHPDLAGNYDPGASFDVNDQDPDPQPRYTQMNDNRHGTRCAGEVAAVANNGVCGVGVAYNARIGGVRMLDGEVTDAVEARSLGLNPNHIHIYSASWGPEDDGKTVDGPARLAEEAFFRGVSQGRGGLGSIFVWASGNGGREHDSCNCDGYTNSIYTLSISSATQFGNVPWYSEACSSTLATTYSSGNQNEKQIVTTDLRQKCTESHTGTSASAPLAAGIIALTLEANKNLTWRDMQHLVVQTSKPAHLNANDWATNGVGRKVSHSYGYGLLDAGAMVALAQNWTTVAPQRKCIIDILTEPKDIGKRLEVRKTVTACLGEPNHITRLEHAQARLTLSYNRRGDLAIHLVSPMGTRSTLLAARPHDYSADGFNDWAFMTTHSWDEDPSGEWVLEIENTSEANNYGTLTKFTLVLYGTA
How it was run: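 CHO-expressed, purified furin construct at 40 pM in 100 mM HEPES pH7.5, 1 mM CaCl2, 0.005% Triton X-100. Eleven-point 1:3 series, 0.00017–10 μM final, incubated 2 h at room temperature and read on Envision. pXC50 from four-parameter fit.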

Row | EC50 [1] [nM] | furin enzyme pIC50 [2] | IC50 ([2]; read-out: furin enzyme pIC50 (converted)) [nM] | Compound
1 | 25.1 | 8.1 |  | CN1CCN(c2cnc(Oc3cc(CN4CCC(OC5(C(=O)O)CC5)CC4)cc(-c4cc(Cl)cc(Cl)c4)n3)cn2)CC1 [Example 353, 1-((1-((2-(3,5-dichlorophenyl)-6-((5-(4-methylpiperazin-1-yl)pyrazin-2-yl)oxy)pyridin-4-yl)methyl)piperidin-4-yl)oxy)cyclopropanecarboxylic acid]
2 | 25.1 | 8.1 |  | CS(=O)(=O)CCCN1CCN(c2cnc(Oc3cc(CN4CCC(CC(=O)O)CC4)cc(-c4cc(Cl)cc(Cl)c4)n3)cn2)CC1 [Example 354, 2-(1-((2-(3,5-dichlorophenyl)-6-((5-(4-(3-(methylsulfonyl)propyl)piperazin-1-yl)pyrazin-2-yl)oxy)pyridin-4-yl)methyl)piperidin-4-yl)acetic acid]
3 | 10 | 8.6 |  | CCN1CCCN(c2ccc(Oc3cc(CN4CCC(CC(=O)O)CC4)cc(-c4cc(Cl)cc(Cl)c4)n3)nn2)CC1 [Example 355, 2-(1-((2-(3,5-dichlorophenyl)-6-((6-(4-ethyl-1,4-diazepan-1-yl)pyridazin-3-yl)oxy)pyridin-4-yl)methyl)piperidin-4-yl)acetic acid]
4 | 31.6 | 8.6 |  | CN1CCCN(c2ccc(Oc3cc(CN4CCC(CC(=O)O)CC4)cc(-c4cc(Cl)cc(Cl)c4)n3)nn2)CC1 [Example 356, 2-(1-((2-(3,5-dichlorophenyl)-6-((6-(4-methyl-1,4-diazepan-1-yl)pyridazin-3-yl)oxy)pyridin-4-yl)methyl)piperidin-4-yl)acetic acid]
5 | 100 | 8.5 |  | CN1C[C@@H]2C[C@H]1CN2c1ccc(Oc2cc(CN3CCC(CC(=O)O)CC3)cc(-c3cc(Cl)cc(Cl)c3)n2)nn1 [Example 357, 2-(1-((2-(3,5-dichlorophenyl)-6-((6-((1S,4S)-5-methyl-2,5-diazabicyclo[2.2.1]heptan-2-yl)pyridazin-3-yl)oxy)pyridin-4-yl)methyl)piperidin-4-yl)acetic acid]
6 | 20 | 9.1 |  | CCN1CCN(c2ccc(Oc3cc(CN4CCC(CC(=O)O)CC4)cc(-c4cc(Cl)cc(Cl)c4)n3)nn2)CC1 [Example 358, 2-(1-((2-(3,5-dichlorophenyl)-6-((6-(4-ethylpiperazin-1-yl)pyridazin-3-yl)oxy)pyridin-4-yl)methyl)piperidin-4-yl)acetic acid]
7 | 63.1 | 9 |  | CN1CCN(c2ccc(Oc3cc(CN4CCC(CC(=O)O)CC4)cc(-c4cc(Cl)cc(Cl)c4)n3)nn2)CC1 [Example 359, 2-(1-((2-(3,5-dichlorophenyl)-6-((6-(4-methylpiperazin-1-yl)pyridazin-3-yl)oxy)pyridin-4-yl)methyl)piperidin-4-yl)acetic acid]
8 | 12.6 | 9 |  | CN1CCN(c2ccc(Oc3cc(CN4CCC(CCO)CC4)cc(-c4cc(Cl)cc(Cl)c4)n3)nn2)CC1 [Example 360, 2-(1-((2-(3,5-dichlorophenyl)-6-((6-(4-methylpiperazin-1-yl)pyridazin-3-yl)oxy)pyridin-4-yl)methyl)piperidin-4-yl)ethanol]
9 | 50.1 | 9 |  | CN1CCN(c2ccc(Oc3cc(CN4CC[C@@H]5[C@H](CC4)[C@H]5C(=O)O)cc(-c4cc(Cl)cc(Cl)c4)n3)nn2)CC1 [Example 361, (1R,7S,8r)-4-((2-(3,5-dichlorophenyl)-6-((6-(4-methylpiperazin-1-yl)pyridazin-3-yl)oxy)pyridin-4-yl)methyl)-4-azabicyclo[5.1.0]octane-8-carboxylic acid]
10 | 25.1 |  | 0.0316 | CN1CCCN(c2ccc(Oc3cc(CN4CC[C@@H]5[C@H](CC4)[C@H]5C(=O)O)cc(-c4cc(Cl)cc(Cl)c4)n3)nn2)CC1 [Example 362, (1R,7S,8r)-4-((2-(3,5-dichlorophenyl)-6-((6-(4-methyl-1,4-diazepan-1-yl)pyridazin-3-yl)oxy)pyridin-4-yl)methyl)-4-azabicyclo[5.1.0]octane-8-carboxylic acid]
11 | 631 | 9.7 |  | CC(=O)NCC1CCN(Cc2cc(Oc3ccc(N4CCN(CC(C)C(=O)O)CC4)nn3)nc(-c3cc(Cl)cc(Cl)c3)c2)CC1 (stereo not shown) [Example 363, 3-(4-(6-((4-((4-(acetamidomethyl)piperidin-1-yl)methyl)-6-(3,5-dichlorophenyl)pyridin-2-yl)oxy)pyridazin-3-yl)piperazin-1-yl)-2-methylpropanoic acid]
12 | 126 | 9.9 |  | C[C@@H](CC1CCN(Cc2cc(Oc3ccc(N4CCN(C)CC4)nn3)nc(-c3cc(Cl)cc(Cl)c3)c2)CC1)C(=O)O [Example 365, (S)-3-(1-((2-(3,5-dichlorophenyl)-6-((6-(4-methylpiperazin-1-yl)pyridazin-3-yl)oxy)pyridin-4-yl)methyl)piperidin-4-yl)-2-methylpropanoic acid]
13 | 31.6 | 8.8 |  | CCN1C[C@@H]2C[C@H]1CN2c1ccc(Oc2cc(CN3CCC(CC(=O)O)CC3)cc(-c3cc(Cl)cc(Cl)c3)n2)nn1 [Example 366, 2-(1-((2-(3,5-dichlorophenyl)-6-((6-((1S,4S)-5-ethyl-2,5-diazabicyclo[2.2.1]heptan-2-yl)pyridazin-3-yl)oxy)pyridin-4-yl)methyl)piperidin-4-yl)acetic acid]
14 | 2.51 | 10.1 |  | CC(=O)N[C@H]1[C@@H]2CCN(Cc3cc(Oc4cnc(N5CCN(CCC(=O)O)CC5)nc4)nc(-c4cc(Cl)cc(Cl)c4)c3)CC[C@@H]21 [Example 367]
15 | 3.98 | 8.3 |  | COC(=O)C(C)CCN1CCN(c2ncc(Oc3cc(CN4CCC(CNC(C)=O)CC4)cc(-c4cc(Cl)cc(Cl)c4)n3)cn2)CC1 (stereo not shown) [Example 368, methyl 4-(4-(5-((4-((4-(acetamidomethyl)piperidin-1-yl)methyl)-6-(3,5-dichlorophenyl)pyridin-2-yl)oxy)pyrimidin-2-yl)piperazin-1-yl)-2-methylbutanoate]
16 | 6.31 | 9.2 |  | CC(=O)NCC1CCN(Cc2cc(Oc3cnc(N4CCN(CCC(C)(C)C(=O)O)CC4)nc3)nc(-c3cc(Cl)cc(Cl)c3)c2)CC1 [Example 370, 4-(4-(5-((4-((4-(Acetamidomethyl)piperidin-1-yl)methyl)-6-(3,5-dichlorophenyl)pyridin-2-yl)oxy)pyrimidin-2-yl)piperazin-1-yl)-2,2-dimethylbutanoic acid, 4 hydrochloride]
17 | 31.6 | 8.9 |  | Cc1c(CN2CCC(CC(=O)O)CC2)cc(-c2cc(Cl)cc(Cl)c2)nc1Oc1ccc(N2CCN(C)CC2)nn1 [Example 371, 2-(1-((6-(3,5-Dichlorophenyl)-3-methyl-2-((6-(4-methylpiperazin-1-yl)pyridazin-3-yl)oxy)pyridin-4-yl)methyl)piperidin-4-yl)acetic acid]
18 | 3.98 | 8.8 |  | CC(=O)NCC1CCN(Cc2cc(Oc3cnc(N4CCN(C(C)CCS(C)(=O)=O)CC4)nc3)nc(-c3cc(F)cc(Cl)c3)c2)CC1 (stereo not shown) [Example 372, N-((1-((2-(3-Chloro-5-fluorophenyl)-6-((2-(4-(4-(methylsulfonyl)butan-2-yl)piperazin-1-yl)pyrimidin-5-yl)oxy)pyridin-4-yl)methyl)piperidin-4-yl)methyl)acetamide]
19 | 5.01 | 8.9 |  | CNC(=O)NCC1CCN(Cc2cc(Oc3cnc(N4CCN(C(C)CCS(C)(=O)=O)CC4)nc3)nc(-c3cc(F)cc(Cl)c3)c2)CC1 (stereo not shown) [Example 373, 1-((1-((2-(3-chloro-5-fluorophenyl)-6-((2-(4-(4-(methylsulfonyl)butan-2-yl)piperazin-1-yl)pyrimidin-5-yl)oxy)pyridin-4-yl)methyl)piperidin-4-yl)methyl)-3-methylurea]
20 | 158 | 7.9 |  | CN1CCCN(c2ncc(Oc3cc(CN4CCC(CC(=O)O)CC4)cc(-c4cc(F)cc(Cl)c4)n3)cn2)CC1 [Example 374, 2-(1-((2-(3-chloro-5-fluorophenyl)-6-((2-(4-methyl-1,4-diazepan-1-yl)pyrimidin-5-yl)oxy)pyridin-4-yl)methyl)piperidin-4-yl)acetic acid]
21 | 251 | 7.9 |  | CC(C)N(c1cnc(N2CCN(C)CC2)nc1)c1cc(CN2CCC(CC(=O)O)CC2)cc(-c2cc(Cl)cc(Cl)c2)n1 [Example 375, 2-(1-((2-(3,5-Dichlorophenyl)-6-(isopropyl(2-(4-methylpiperazin-1-yl)pyrimidin-5-yl)amino)pyridin-4-yl)methyl)piperidin-4-yl)acetic acid]
22 | 25.1 | 8.7 |  | CN1CCN(c2ncc(Oc3cc(-c4cc(Cl)cc(Cl)c4)cc(CN4CCC(CC(=O)O)CC4)c3F)cn2)CC1 [Example 376, 2-(1-((3′,5′-dichloro-4-fluoro-5-((2-(4-methylpiperazin-1-yl)pyrimidin-5-yl)oxy)-[1,1′-biphenyl]-3-yl)methyl)piperidin-4-yl)acetic acid]
23 | 25.1 | 8.6 |  | CN1CCN(c2ccc(Oc3nc(-c4cc(Cl)cc(Cl)c4)cc(CN4CCC(CC(=O)O)CC4)c3F)cn2)CC1 [Example 377, 2-(1-((6-(3,5-Dichlorophenyl)-3-fluoro-2-((6-(4-methylpiperazin-1-yl)pyridin-3-yl)oxy)pyridin-4-yl)methyl)piperidin-4-yl)acetic acid, 4 hydrochloride]
